Literature values in article PMC3480965 (Molecular pharmaceutics, 2012).

Assays:
[1] = target: melanocortin-1 (MC1) receptor (Mus musculus, UniProt Q01727); conditions: read-out: MC1 receptor binding affinity (IC50); B16/F1 melanoma cells
melanoma = conditions: in vivo, 2 h

Sequence of melanocortin-1 (MC1) receptor (Q01727 whole entry): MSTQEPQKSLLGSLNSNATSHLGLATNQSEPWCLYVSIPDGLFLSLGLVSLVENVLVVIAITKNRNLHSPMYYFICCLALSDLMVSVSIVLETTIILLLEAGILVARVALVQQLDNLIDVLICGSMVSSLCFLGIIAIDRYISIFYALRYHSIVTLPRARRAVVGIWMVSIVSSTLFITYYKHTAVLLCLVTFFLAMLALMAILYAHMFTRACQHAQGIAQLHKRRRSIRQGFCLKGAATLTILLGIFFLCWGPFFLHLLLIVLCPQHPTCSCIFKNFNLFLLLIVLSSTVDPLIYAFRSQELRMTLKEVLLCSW

For “1,4,7,10-tetraazacyclononane-1,4,7,10-tetraacetic acid-GGNle-CycMSHhex (GGXDHFRWK; X3 = norleucine (Nle); D-Phe6; lactam bridge between Asp4 and Lys9 side chains (cyclic); C-terminal amide; 64Cu-labelled for biod) [DOTA-GGNle-CycMSHhex]”, the IC50 [1] is listed as 2.1 nM.

In the case of “Ac-Nle-Asp-His-D-Phe-Arg-Trp-Gly-Lys(^64Cu-DOTA)-NH2 [^64Cu-DOTA-NAPamide]”, the Liver uptake (melanoma) is listed as 11.0 % ID/g and the Melanoma uptake (melanoma) is listed as 4.63 ± 0.45 % ID/g.

In the case of “^64Cu-DOTA-Re-[Cys[3],[4],[10], D-Phe^7, Arg^11]a-MSH3–13 [^64Cu-DOTA-ReCCMSH(Arg^11)]”, the Liver uptake (melanoma) is given as 7.3 % ID/g and the Melanoma uptake (melanoma) is given as 8.80 ± 1.70 % ID/g.
